Consider seven molecules from US20250215029A1 (Recludix Pharma, Inc., priority 2022, published 2025).

Structures are written as SMILES. pIC50: −log10 of the molar value.

T1 sequence (P40763 whole entry): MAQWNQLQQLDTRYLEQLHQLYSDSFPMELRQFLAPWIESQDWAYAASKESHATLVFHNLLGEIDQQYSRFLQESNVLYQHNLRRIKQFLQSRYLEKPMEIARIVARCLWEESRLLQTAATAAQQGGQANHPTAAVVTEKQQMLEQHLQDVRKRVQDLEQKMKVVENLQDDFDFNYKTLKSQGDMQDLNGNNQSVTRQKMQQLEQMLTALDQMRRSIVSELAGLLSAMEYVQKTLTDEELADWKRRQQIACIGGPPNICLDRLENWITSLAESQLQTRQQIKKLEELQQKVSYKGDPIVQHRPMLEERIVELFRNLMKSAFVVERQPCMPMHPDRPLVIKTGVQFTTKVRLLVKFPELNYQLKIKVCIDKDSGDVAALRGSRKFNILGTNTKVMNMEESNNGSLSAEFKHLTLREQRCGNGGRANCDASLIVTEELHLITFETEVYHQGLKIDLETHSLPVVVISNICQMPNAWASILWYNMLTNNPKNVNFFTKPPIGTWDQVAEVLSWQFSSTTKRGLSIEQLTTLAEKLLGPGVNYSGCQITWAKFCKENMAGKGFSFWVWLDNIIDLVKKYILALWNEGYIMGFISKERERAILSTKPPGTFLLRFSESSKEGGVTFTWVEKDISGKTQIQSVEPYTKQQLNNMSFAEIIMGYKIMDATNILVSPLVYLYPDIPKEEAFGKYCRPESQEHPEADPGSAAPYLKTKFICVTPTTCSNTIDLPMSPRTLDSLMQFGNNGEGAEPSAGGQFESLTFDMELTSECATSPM

This assay has as its target T1, pY705-STAT3 in PBMC (Homo sapiens, UniProt P40763).
T1 construct: Cryopreserved Peripheral Blood Mononuclear Cells (PBMC) are from AllCells; host or cells: cryopreserved PBMC
Put plainly: MSD-pSTAT-PBMC Assay (pSTAT3, IL-6 stimulated). The note with it: PBMC, compound 3 hrs, then 10 ng/mL IL-6 for 10 min; Table 115; read-out: STAT3. The assay is classed as cell-based. The method in brief: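 PBMC (human, cryopreserved, overnight recovery) + cpd 3 hrs → IL-6 10 ng/mL (STAT3) or IL-4 1 ng/mL (STAT6) ×10 min → lysis with protease/phosphatase inhibitors → MSD capture/phospho detection. IC50, variable slope, DMSO-normalized.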
Turning to `COC1(c2cccnc2)CN(C(=O)[C@@H]2CC[C@@H]3CCCC[C@H](NC(=O)c4cc5cc(CP(=O)(N[C@@H](C)C(=O)OCC(C)C)Oc6ccccc6)ccc5s4)C(=O)N32)C1` (stereo partly drawn) [Compound 281, isobutyl (((2-(((3S,6S,10aS)-3-(3-methoxy-3-(pyridin-3-yl)azetidine-1-carbonyl)-5-oxodecahydropyrrolo [1,2-a]azocin-6-yl)carbamoyl)benzo [b]thiophen-5-yl)methyl)(phenoxy)phosphoryl)-L-alaninate], the pIC50 was more than 7.00.
Under `Cc1ccncc1C1CN(C(=O)[C@@H]2CC[C@@H]3CCCC[C@H](NC(=O)c4cc5cc(CP(=O)(N[C@@H](C)C(=O)OCC(C)C)Oc6ccccc6)ccc5s4)C(=O)N32)C1` (stereo partly drawn) [Compound 282, isobutyl (((2-(((3S,6S,10aS)-3-(3-(4-methylpyridin-3-yl)azetidine-1-carbonyl)-5-oxodecahydropyrrolo [1,2-a]azocin-6-yl)carbamoyl)benzo [b]thiophen-5-yl)methyl)(phenoxy)phosphoryl)-L-alaninate] stands more than 7.00.
For `CCCOC(=O)[C@H](C)NP(=O)(Cc1ccc2sc(C(=O)N[C@H]3C[C@H](C)C[C@H]4CC[C@@H](C(=O)N5CC(c6cnccc6C)C5)N4C3=O)cc2c1)Oc1ccccc1` (stereo partly drawn) [Compound 283, propyl (((2-(((3S,6S,8S,9aR)-8-methyl-3-(3-(4-methylpyridin-3-yl)azetidine-1-carbonyl)-5-oxooctahydro-1H-pyrrolo[1,2-a]azepin-6-yl)carbamoyl)benzo [b]thiophen-5-yl)methyl)(phenoxy)phosphoryl)-L-alaninate], the pIC50 is more than 7.00.
As to `CCCCOC(=O)[C@H](C)N(C)P(=O)(Oc1ccccc1)C(F)(F)c1ccc2sc(C(=O)N[C@H]3CCC[C@H]4CC[C@@H](C(=O)N5CC(c6cccnc6)C5)N4C3=O)cc2c1` (stereo partly drawn) [Compound 285, butyl N-((difluoro(2-(((3S,6S,9aS)-5-oxo-3-(3-(pyridin-3-yl)azetidine-1-carbonyl)octahydro-1H-pyrrolo[1,2-a]azepin-6-yl)carbamoyl)benzo [b]thiophen-5-yl)methyl)(phenoxy)phosphoryl)-N-methyl-L-alaninate], the pIC50 was less than 5.52.
Under `CCCOC(=O)[C@H](C)NP(=O)(Cc1ccc2sc(C(=O)N[C@H]3CC[C@H](C)C[C@H]4CC[C@@H](C(=O)N5CC(c6cnccc6C)C5)N4C3=O)cc2c1)Oc1ccccc1` (stereo partly drawn) [Compound 286, propyl (((2-(((3S,6S,9S,10aR)-9-methyl-3-(3-(4-methylpyridin-3-yl)azetidine-1-carbonyl)-5-oxodecahydropyrrolo [1,2-a]azocin-6-yl)carbamoyl)benzo [b]thiophen-5-yl)methyl)(phenoxy)phosphoryl)-L-alaninate] stands more than 7.00.
Under `CCCOC(=O)[C@H](C)NP(=O)(Cc1ccc2sc(C(=O)N[C@H]3CC[C@@H](C)C[C@H]4CC[C@@H](C(=O)N5CC(c6cnccc6C)C5)N4C3=O)cc2c1)Oc1ccccc1` (stereo partly drawn) [Compound 287, propyl (((2-(((3S,6S,9R,10aR)-9-methyl-3-(3-(4-methylpyridin-3-yl)azetidine-1-carbonyl)-5-oxodecahydropyrrolo [1,2-a]azocin-6-yl)carbamoyl)benzo [b]thiophen-5-yl)methyl)(phenoxy)phosphoryl)-L-alaninate] stands more than 7.00.
`CCCCOC(=O)[C@H](C)NP(=O)(Cc1ccc2sc(C(=O)N[C@H]3CCC[C@H]4CC[C@@H](C(=O)N5CC(c6ncccc6C)C5)N4C3=O)cc2c1)Oc1ccccc1` (stereo partly drawn) [Compound 288, butyl (((2-(((3S,6S,9aS)-3-(3-(3-methylpyridin-2-yl)azetidine-1-carbonyl)-5-oxooctahydro-1H-pyrrolo[1,2-a]azepin-6-yl)carbamoyl)benzo [b]thiophen-5-yl)methyl)(phenoxy)phosphoryl)-L-alaninate]: the pIC50 is 6.00 to 7.00.
